Legend:
[1] = Dissolution of IBU compositions in SGFsp pH 1.2 (USP apparatus II, fiber-optic UV); format: physicochemical; conditions: at 2 hours
Method: All dissolution tests were conducted in a Vankel VK-7000 (Varian, Inc.) USP apparatus II (paddle) dissolution tester. The dissolution medium was maintained at 37° C. with a recirculating heater and a paddle speed of 75 RPM was constant throughout the test. The theoretical equivalent of 200 mg of IBU (1.0 g of KSD product) was added to each vessel containing 1 L of the dissolution medium (n=3). […] The dissolution medium recipe (SGFsp) consisted of 2.0 g NaCl and 80 ml of 0.1 N HCl in a total of 1 L of purified water (pH=1.2). The dissolution medium was degassed prior to testing by the heat/sonication method.
The concentration of IBU in solution during the 120 minute dissolution test (shown in Table 10) was measured once per minute using a Pion Spectra in-situ fiber-optic UV-diss system (Pion, Inc., Billerica, Mass.) with a 1 mm path length probe tip. Concentrations were determined by integrating the area under the UV absorption curve in a wavelength range of 216 to 222 nm with a baseline correction at 450 nm. Linearity was established over a range of 1.4 to 200 μg/ml with a correlation coefficient of 0.9992. A diluents consisting of 7:3 (V/V) SGFsp:Acetonitrile (HPLC grade, no UV absorption beyond 190 nm) was used to generate the IBU standard curve.

[2] = cited from earlier work

| final concentration [1] [mg/mL] | Compound | pKa [2] |
| --- | --- | --- |
| > 0.02 | CC(C)Cc1ccc(C(C)C(=O)O)cc1 (stereo not drawn) [Pure Ibuprofen, Ibuprofen] | – |
| – | Acetriptan | 4.9 |
| – | Cc1ccnc2c1NC(=O)c1cccnc1N2C1CC1 [Nevirapine] | 2.8 |
